One test concerns the target T1, Alpha-1D adrenergic receptor (Homo sapiens, UniProt P25100). Further: in other assays of this panel Not Active means under 50% inhibition at 10 µM.
T1 sequence (P25100 whole entry): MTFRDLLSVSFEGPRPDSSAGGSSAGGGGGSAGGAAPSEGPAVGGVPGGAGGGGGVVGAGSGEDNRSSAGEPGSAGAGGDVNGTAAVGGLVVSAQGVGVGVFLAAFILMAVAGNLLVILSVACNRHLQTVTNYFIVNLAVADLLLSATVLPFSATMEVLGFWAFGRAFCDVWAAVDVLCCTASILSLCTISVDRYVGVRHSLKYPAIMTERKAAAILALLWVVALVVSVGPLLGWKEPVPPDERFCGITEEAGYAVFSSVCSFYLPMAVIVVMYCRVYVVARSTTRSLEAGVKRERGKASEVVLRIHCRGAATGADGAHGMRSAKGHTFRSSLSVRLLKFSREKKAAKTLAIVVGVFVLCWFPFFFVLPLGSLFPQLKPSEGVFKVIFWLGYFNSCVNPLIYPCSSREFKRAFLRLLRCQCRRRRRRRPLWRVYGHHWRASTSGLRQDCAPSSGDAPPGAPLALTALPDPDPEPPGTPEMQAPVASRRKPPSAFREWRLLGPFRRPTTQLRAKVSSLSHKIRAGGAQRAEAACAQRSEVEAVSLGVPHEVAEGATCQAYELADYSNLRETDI
In kind it is cell membranes, HEK293, Membrane. The settings on record: hek293.
Sequence of C-C chemokine receptor type 5 (P51681 whole entry): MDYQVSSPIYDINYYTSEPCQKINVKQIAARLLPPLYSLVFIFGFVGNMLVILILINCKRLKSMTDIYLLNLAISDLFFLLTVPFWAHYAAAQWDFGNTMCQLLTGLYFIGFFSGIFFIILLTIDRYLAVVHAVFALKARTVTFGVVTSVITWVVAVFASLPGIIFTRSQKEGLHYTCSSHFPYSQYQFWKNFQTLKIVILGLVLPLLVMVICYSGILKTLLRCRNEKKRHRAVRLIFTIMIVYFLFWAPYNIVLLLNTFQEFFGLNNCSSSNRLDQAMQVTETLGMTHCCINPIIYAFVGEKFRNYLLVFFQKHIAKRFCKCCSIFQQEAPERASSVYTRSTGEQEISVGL
For COBALT(II) ACETYLACETONATE, the IC50 result was “Not Active” and the Ki entry is given as “Not Active”.

Take INSULIN HUMAN: the IC50 result is “Not Active” and the Ki result is reported as “Not Active”.

With POLYVINYL ALCOHOL, the IC50 entry was “Not Active” and the Ki entry is “Not Active”.

The test is the same for the next values; noted with them: read-out: IC50.
For the compound `CC(C)C[C@H]1C(=O)N2CCC[C@H]2[C@]2(O)O[C@](NC(=O)[C@@H]3C=C4c5cccc6[nH]c(Br)c(c56)C[C@H]4N(C)C3)(C(C)C)C(=O)N12` [BROMOCRIPTINE], the IC50 worked out at 30 nM.

Regarding `CN1C[C@H](C(=O)N[C@]2(C)O[C@@]3(O)[C@@H]4CCCN4C(=O)[C@H](Cc4ccccc4)N3C2=O)C[C@@H]2c3cccc4[nH]cc(c34)C[C@H]21` [DIHYDROERGOTAMINE], the IC50 amounted to 29 nM.

Still in this test, the particulars now being: read-out: Ki.
`CC(C)C[C@H]1C(=O)N2CCC[C@H]2[C@]2(O)O[C@](NC(=O)[C@@H]3C=C4c5cccc6[nH]c(Br)c(c56)C[C@H]4N(C)C3)(C(C)C)C(=O)N12` [BROMOCRIPTINE]: the Ki came to 15 nM.

For `CN1C[C@H](C(=O)N[C@]2(C)O[C@@]3(O)[C@@H]4CCCN4C(=O)[C@H](Cc4ccccc4)N3C2=O)C[C@@H]2c3cccc4[nH]cc(c34)C[C@H]21` [DIHYDROERGOTAMINE], the Ki amounted to 14 nM.

The target in another test is T2, Vasoactive intestinal polypeptide receptor 1 (Homo sapiens, UniProt P32241). Further: in other assays of this panel Not Active means under 50% inhibition at 10 µM.
T2 sequence (P32241 whole entry): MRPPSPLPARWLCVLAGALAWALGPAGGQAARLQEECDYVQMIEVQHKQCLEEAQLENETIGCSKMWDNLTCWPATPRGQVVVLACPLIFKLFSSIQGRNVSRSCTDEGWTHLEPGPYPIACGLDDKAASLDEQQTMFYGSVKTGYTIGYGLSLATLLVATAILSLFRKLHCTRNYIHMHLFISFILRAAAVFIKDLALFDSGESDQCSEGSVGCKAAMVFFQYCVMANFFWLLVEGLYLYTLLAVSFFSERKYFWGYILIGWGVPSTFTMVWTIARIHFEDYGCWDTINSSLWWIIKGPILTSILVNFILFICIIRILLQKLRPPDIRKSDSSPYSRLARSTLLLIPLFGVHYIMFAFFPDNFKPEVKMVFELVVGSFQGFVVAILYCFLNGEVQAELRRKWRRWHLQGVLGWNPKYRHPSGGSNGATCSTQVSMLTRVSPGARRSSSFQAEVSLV
In kind it is cell membranes, Membrane. The following applies: ht-29.
As for `CC(C)C[C@H]1C(=O)N2CCC[C@H]2[C@]2(O)O[C@](NC(=O)[C@@H]3C=C4c5cccc6[nH]c(Br)c(c56)C[C@H]4N(C)C3)(C(C)C)C(=O)N12` [BROMOCRIPTINE], the IC50 entry is recorded as “Not Active”.

For the compound `CN1C[C@H](C(=O)N[C@]2(C)O[C@@]3(O)[C@@H]4CCCN4C(=O)[C@H](Cc4ccccc4)N3C2=O)C[C@@H]2c3cccc4[nH]cc(c34)C[C@H]21` [DIHYDROERGOTAMINE], the 50% inhibitory concentration (IC50) result is on record as “Not Active”.

As to COBALT(II) ACETYLACETONATE, the IC50 entry is given as “Not Active” and the Ki entry is “Not Active”.

As for INSULIN HUMAN, the half-maximal inhibitory concentration (IC50) entry is listed as “Not Active” and the Ki result was “Not Active”.

Regarding POLYVINYL ALCOHOL, the IC50 entry was “Not Active” and the Ki entry is listed as “Not Active”.

The next test has as its target C-C chemokine receptor type 5 (Homo sapiens, UniProt P51681). In kind it is cell membranes, Membrane. The following applies: hek293. Further: in other assays of this panel Not Active means under 50% inhibition at 10 µM.
As for `CC(C)C[C@H]1C(=O)N2CCC[C@H]2[C@]2(O)O[C@](NC(=O)[C@@H]3C=C4c5cccc6[nH]c(Br)c(c56)C[C@H]4N(C)C3)(C(C)C)C(=O)N12` [BROMOCRIPTINE], the IC50 entry was “Not Active”.

`CN1C[C@H](C(=O)N[C@]2(C)O[C@@]3(O)[C@@H]4CCCN4C(=O)[C@H](Cc4ccccc4)N3C2=O)C[C@@H]2c3cccc4[nH]cc(c34)C[C@H]21` [DIHYDROERGOTAMINE]: the IC50 result was “Not Active”.

On to COBALT(II) ACETYLACETONATE, for which the IC50 entry is listed as “Not Active” and the Ki result was “Not Active”.

Regarding INSULIN HUMAN, the IC50 entry is “Not Active” and the Ki result is on record as “Not Active”.

For POLYVINYL ALCOHOL, the concentration for half-maximal inhibition (IC50) result is recorded as “Not Active” and the Ki entry was “Not Active”.

Another test has as its target T3, C-X-C chemokine receptor type 2 (Homo sapiens, UniProt P25025). Further: in other assays of this panel Not Active means under 50% inhibition at 10 µM.
T3 sequence (P25025 whole entry): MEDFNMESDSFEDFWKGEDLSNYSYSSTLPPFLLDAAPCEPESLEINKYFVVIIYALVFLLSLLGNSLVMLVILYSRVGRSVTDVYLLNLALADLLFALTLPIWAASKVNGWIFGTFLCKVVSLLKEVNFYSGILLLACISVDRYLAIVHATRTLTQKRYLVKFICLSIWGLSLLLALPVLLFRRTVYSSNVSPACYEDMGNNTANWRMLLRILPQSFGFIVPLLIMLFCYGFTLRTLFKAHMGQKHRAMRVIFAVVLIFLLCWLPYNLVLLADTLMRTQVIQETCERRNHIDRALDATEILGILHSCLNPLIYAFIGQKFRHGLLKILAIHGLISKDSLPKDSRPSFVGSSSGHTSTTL
The test is classed as cell membranes, Membrane. The settings on record: cho-k1.
Take `CC(C)C[C@H]1C(=O)N2CCC[C@H]2[C@]2(O)O[C@](NC(=O)[C@@H]3C=C4c5cccc6[nH]c(Br)c(c56)C[C@H]4N(C)C3)(C(C)C)C(=O)N12` [BROMOCRIPTINE]: the IC50 entry was “Not Active”.

Consider `CN1C[C@H](C(=O)N[C@]2(C)O[C@@]3(O)[C@@H]4CCCN4C(=O)[C@H](Cc4ccccc4)N3C2=O)C[C@@H]2c3cccc4[nH]cc(c34)C[C@H]21` [DIHYDROERGOTAMINE], for which the IC50 result is “Not Active”.

As to COBALT(II) ACETYLACETONATE, the IC50 result is reported as “Not Active” and the Ki result is on record as “Not Active”.

As for INSULIN HUMAN, the IC50 entry is “Not Active” and the inhibitory constant (Ki) result was “Not Active”.

Take POLYVINYL ALCOHOL: the IC50 entry is given as “Not Active” and the Ki result was “Not Active”.

A further test addresses T4, Nitric oxide synthase, inducible (Mus musculus, UniProt P29477).
T4 sequence (P29477 whole entry): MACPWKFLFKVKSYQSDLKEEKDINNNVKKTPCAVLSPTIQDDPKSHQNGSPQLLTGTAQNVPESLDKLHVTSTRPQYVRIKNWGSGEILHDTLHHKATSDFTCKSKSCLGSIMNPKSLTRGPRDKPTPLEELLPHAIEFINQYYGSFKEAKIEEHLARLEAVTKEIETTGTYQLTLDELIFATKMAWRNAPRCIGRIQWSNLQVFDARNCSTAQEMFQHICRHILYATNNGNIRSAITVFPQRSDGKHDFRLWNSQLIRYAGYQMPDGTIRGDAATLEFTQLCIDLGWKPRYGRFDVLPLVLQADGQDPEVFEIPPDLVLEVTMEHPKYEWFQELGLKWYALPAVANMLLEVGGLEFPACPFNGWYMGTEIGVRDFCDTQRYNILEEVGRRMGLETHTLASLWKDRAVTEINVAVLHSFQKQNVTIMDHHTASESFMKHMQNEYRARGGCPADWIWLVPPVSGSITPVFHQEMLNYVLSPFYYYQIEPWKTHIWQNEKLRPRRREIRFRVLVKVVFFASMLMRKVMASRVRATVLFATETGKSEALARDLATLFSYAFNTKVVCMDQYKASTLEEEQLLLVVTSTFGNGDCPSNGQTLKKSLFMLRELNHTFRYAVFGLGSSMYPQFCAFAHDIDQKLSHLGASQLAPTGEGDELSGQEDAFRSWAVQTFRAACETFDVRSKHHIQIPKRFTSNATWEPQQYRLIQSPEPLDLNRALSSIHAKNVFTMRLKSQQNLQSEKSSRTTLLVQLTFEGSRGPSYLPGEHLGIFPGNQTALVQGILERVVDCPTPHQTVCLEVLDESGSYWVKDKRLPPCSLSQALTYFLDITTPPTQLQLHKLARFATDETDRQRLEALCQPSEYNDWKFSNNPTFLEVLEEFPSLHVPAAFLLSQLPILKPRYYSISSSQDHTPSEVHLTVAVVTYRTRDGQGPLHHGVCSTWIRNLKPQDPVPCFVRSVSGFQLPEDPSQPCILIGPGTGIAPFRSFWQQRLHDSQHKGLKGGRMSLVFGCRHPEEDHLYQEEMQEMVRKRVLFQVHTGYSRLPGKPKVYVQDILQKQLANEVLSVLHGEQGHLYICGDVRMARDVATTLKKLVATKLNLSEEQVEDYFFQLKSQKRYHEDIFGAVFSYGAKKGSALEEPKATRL
Further details: species or system Escherichia coli.
Details: not given
`CC(C)C[C@H]1C(=O)N2CCC[C@H]2[C@]2(O)O[C@](NC(=O)[C@@H]3C=C4c5cccc6[nH]c(Br)c(c56)C[C@H]4N(C)C3)(C(C)C)C(=O)N12` [BROMOCRIPTINE]: the concentration for half-maximal inhibition (IC50) result was “Not Active”.

On to `CN1C[C@H](C(=O)N[C@]2(C)O[C@@]3(O)[C@@H]4CCCN4C(=O)[C@H](Cc4ccccc4)N3C2=O)C[C@@H]2c3cccc4[nH]cc(c34)C[C@H]21` [DIHYDROERGOTAMINE], for which the IC50 result is reported as “Not Active”.

As for COBALT(II) ACETYLACETONATE, the IC50 result is recorded as “Not Active” and the Ki result was “Not Active”.

On to INSULIN HUMAN, for which the IC50 entry is reported as “Not Active” and the Ki entry is on record as “Not Active”.

On to POLYVINYL ALCOHOL, for which the IC50 entry is given as “Not Active” and the Ki result is “Not Active”.

Test system in a further test: not listed separately
Put plainly: DRUGMATRIX: Platelet-Derived Growth Factor (PDGF) radioligand binding (ligand: [125I] PDGF). The test is classed as cell-based. The settings on record: nih3t3; Not Active = under 50% inhibition at 10 µM.
Regarding `CC(C)C[C@H]1C(=O)N2CCC[C@H]2[C@]2(O)O[C@](NC(=O)[C@@H]3C=C4c5cccc6[nH]c(Br)c(c56)C[C@H]4N(C)C3)(C(C)C)C(=O)N12` [BROMOCRIPTINE], the IC50 result is “Not Active” and the Ki entry is recorded as “Not Active”.

Take `CN1C[C@H](C(=O)N[C@]2(C)O[C@@]3(O)[C@@H]4CCCN4C(=O)[C@H](Cc4ccccc4)N3C2=O)C[C@@H]2c3cccc4[nH]cc(c34)C[C@H]21` [DIHYDROERGOTAMINE]: the concentration for half-maximal inhibition (IC50) entry was “Not Active” and the Ki result is given as “Not Active”.

For COBALT(II) ACETYLACETONATE, the IC50 result is listed as “Not Active” and the Ki result is reported as “Not Active”.

As for INSULIN HUMAN, the IC50 result was “Not Active” and the Ki result is “Not Active”.

In the case of POLYVINYL ALCOHOL, the IC50 result was “Not Active” and the inhibitory constant (Ki) entry is recorded as “Not Active”.

As a reminder, the IC50 is the point on the concentration scale where inhibition reaches its midpoint. Usually Ki stands for the dissociation constant of the complex between target and ligand, obtained from inhibition or displacement.

Source of the values: ChEMBL document CHEMBL1909046, “DrugMatrix in vitro pharmacology data”.
